Measured values taken from patent publication US20240229066A1 (priority 2020, published 2024).
Peptide text beside a SMILES is read from it. * marks the point of attachment. Cbz = O=C(OCc1ccccc1)*; CHN2 = [N-]=[N+]=C*

Assays:
Assay type in all cases: cell-based, recombinant vesicular stomatitis virus
[1] = system: rVSVs bearing SARS-CoV-2 S
rVSVs bearing EBOV GP = system: rVSVs bearing EBOV GP
[2] = system: rVSVs carrying SARS-CoV 2 S

SMILES | entry by rVSVs bearing SARS-CoV-2 S (infection scored by eGFP expression) [1] | sensitivity of S-mediated entry compared with entry by EBOV GP [1] | entry by rVSVs bearing EBOV GP (infection scored by eGFP expression) (rVSVs bearing EBOV GP) | S-mediated entry (infection scored by eGFP expression) [2] | sensitivity of S-mediated entry relative to EBOV GP-dependent entry [2]
Cl.N [NH4Cl] | reduced entry | comparatively less sensitive | reduced entry | – | –
[N-]=[N+]=CC(=O)C(Cc1ccc(O)cc1)NC(=O)C(Cc1ccccc1)NC(=O)OCc1ccccc1 (stereo not drawn) [FYdmk, Z-Phe-tyr-dmk] (Cbz-Phe-Tyr-CHN2; configuration not given here) | – | – | – | inhibited S-mediated entry | reduced sensitivity
